The text below walks through data of US20090048216A1, “INTRAVENOUS AND ORAL DOSING OF A DIRECT-ACTING AND REVERSIBLE P2Y12 INHIBITOR” (Portola Pharmaceuticals, Inc., priority 2007, published 2009).

“Also recorded” adds a separate entry of the source. Bounds are passed on as bounds.

One may read the half-life as the time needed for the level to fall by half in the phase considered.

For data set [1], the system named is ADP-induced human platelet aggregation. In words: Inhibition of ADP-mediated platelet aggregation in vitro (PRP assay). As to conditions: human platelet-rich plasma. The format is cell-based. As for the experimental part: For preparation of human platelet-rich plasma for aggregation assays, human venous blood was collected from healthy, drug-free volunteers into 0.38% sodium citrate (0.013 M, pH 7.0 final). […] This preparation of PRP can subsequently be used for aggregation assays in either a 96-well plate or standard cuvette aggregometry.
For cuvette light transmittance aggregation assays, serial dilutions (1:3) of test compounds were prepared in 100% DMSO in a 96 well V-bottom plate (final DMSO concentration in the cuvette was 0.6%). […] The aggregation reaction is recorded for ˜5 min, and maximum extent of aggregation is determined by the difference in extent of aggregation at baseline, compared to the maximum aggregation that occurs during the five minute period of the assay. Inhibition of aggregation was calculated as the maximum aggregation observed in the presence of inhibitor, compared to that in the absence of inhibitor. […]
Inhibition of ADP-dependent aggregation was also determined in 96-well flat-bottom microtiter plates using a microtiter plate shaker and plate reader similar to the procedure described by Frantantoni et al., Am. […] The OD of the samples is then determined at 450 nm using a microtiter plate reader (Softmax, Molecular Devices, Menlo Park, Calif.) resulting in the 0 minute reading. […]

The target of data set [2] is T1, P2Y12 receptor (Homo sapiens, UniProt Q9H244).
T1 construct: endogenous in cells; host or cells: apyrase-washed human platelets (outdated from hospital blood banks, or fresh)
T1 sequence (Q9H244 whole entry): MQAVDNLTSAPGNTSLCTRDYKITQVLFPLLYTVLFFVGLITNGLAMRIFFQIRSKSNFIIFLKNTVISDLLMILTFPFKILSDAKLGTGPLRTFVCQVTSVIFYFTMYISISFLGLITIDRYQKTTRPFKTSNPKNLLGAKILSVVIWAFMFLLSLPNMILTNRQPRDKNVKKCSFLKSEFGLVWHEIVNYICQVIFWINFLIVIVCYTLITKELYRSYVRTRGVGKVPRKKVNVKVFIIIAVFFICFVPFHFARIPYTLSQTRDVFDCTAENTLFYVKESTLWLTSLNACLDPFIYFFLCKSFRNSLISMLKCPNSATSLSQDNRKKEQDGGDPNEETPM
Briefly: platelet ADP receptor binding assay (ARB): inhibition of [3H]2-MeS-ADP binding to platelets. Conditions: whole platelets. The method, then: 1. The Ability of Candidate Molecules to Inhibit the Binding of [3H]2-MeS-ADP to the P2Y12 Receptor on Platelets was Determined Using a Radioligand Binding Assay.
Utilizing this assay the potency of inhibition of such compounds with respect to [^3H]2-MeS-ADP binding to whole platelets is determined. Under the conditions described in II (3) below, the binding of [^3H]2-MeS-ADP is solely due to the interaction of this ligand with the P2Y12 receptor, in that all the specific binding measured in this assay is compatable with a P2Y12 antagonist (i.e., the specific binding is reduced to background levels by competition with an excess of P2Y12 antagonist, with no competition of binding when a P2Y1 antagonist is pre-incubated with the platelet preparation). […]
A platelet ADP receptor binding assay (ARB) using the tritiated potent agonist ligand [3H]2-MeS-ADP (Jantzen, H. M. et al. (1999) Thromb. Hemost. 81:111-117) has been adapted to the 96-well microtiter format. […] Total binding is determined in the absence of test compounds. […] The platelet-bound radioactivity on the filtermats is determined in a scintillation counter (Microbeta 1450, Wallac Inc., Gaithersburg, Md.). Specific binding is determined by subtraction of non-specific binding from total binding, and specific binding in the presence of test compounds is expressed as % of specific binding in the absence of test compound dilutions. […]

For data set [3] the following is noted: one week, 40° C., 75% RH.
Data set [4] in a line: Accelerated stability of solid forms.
Data set [5] in a line: Tolerability and safety of single oral doses in human subjects. As to conditions: oral doses 10-800 mg.
Description: A single center, double-blind, placebo-controlled study of a compound of Formula I was conducted in human subjects. The compound of Formula I was the potassium salt (Polymorph B) dissolved in water.
Data set [6] in a line: Pharmacokinetics of single IV doses in human subjects. It counts as in vivo. As to conditions: IV 1-40 mg.
Data set [7] can be described thus: Pharmacokinetics of single oral liquid doses in human subjects. It counts as in vivo.
For data set [8], the system named is ADP-induced platelet aggregation. As to conditions: IV, at the higher dosages.
Description: (§1) Human venous blood was collected in a plastic syringe and immediately transferred to a plastic tube containing a fixed amount of anticoagulant (e.g., 5 μM (final) of a proprietary Portola anticoagulant C921-78 (a factor Xa inhibitor (see, Betz A, Wong P W, Sinha U. Inhibition of factor Xa by a peptidyl-alpha-ketothiazole involves 2 steps: evidence for a stabilizing conformational change. Biochemistry. 1999; 38: 14582-14591)) and mixed gently by inversion. Platelet-rich plasma (PRP) was prepared by centrifugation of whole blood at 160×g for 20 minutes at room temperature. The PRP layer was removed, transferred to a new tube, and the platelet count was adjusted, if necessary, to achieve a platelet concentration of ˜3×10^8 platelets/ml using platelet-poor plasma (PPP). PPP is prepared by centrifugation of the remaining blood sample (after removal of PRP) for 20 minutes at 800×g. This preparation of PRP was used for standard light transmittance aggregometry assays. […] While stirring the PRP, a sufficient volume of adenosine diphosphate (ADP, Sigma-Aldrich) was added to achieve a final concentration of 10 μM in the cuvette, and the change in light transmittance was recorded for 6 minutes. The maximum extent of aggregation as well as the final (6 min after initiation of the aggregation reaction) extent of aggregation was determined from each reaction.
Data set [9] has as its system ADP induced platelet aggregation.
Description: (§2) Human venous blood was collected in a plastic syringe and immediately transferred to a plastic tube containing a fixed amount of anticoagulant (e.g., 5 μM (final) of a proprietary Portola anticoagulant C921-78 (a factor Xa inhibitor (see, Betz A, Wong P W, Sinha U. Inhibition of factor Xa by a peptidyl-alpha-ketothiazole involves 2 steps: evidence for a stabilizing conformational change. Biochemistry. 1999; 38: 14582-14591)) and mixed gently by inversion. Platelet-rich plasma (PRP) was prepared by centrifugation of whole blood at 160×g for 20 minutes at room temperature. The PRP layer was removed, transferred to a new tube, and the platelet count was adjusted, if necessary, to achieve a platelet concentration of ˜3×10^8 platelets/ml using platelet-poor plasma (PPP). PPP is prepared by centrifugation of the remaining blood sample (after removal of PRP) for 20 minutes at 800×g. This preparation of PRP was used for standard light transmittance aggregometry assays. A fixed volume of PRP (0.3-0.5 mls) was transferred to an aggregometry cuvette, and the same volume of PPP was used to blank the machine. While stirring the PRP, a sufficient volume of adenosine diphosphate (ADP, Sigma-Aldrich) was added to achieve a final concentration of 10 μM in the cuvette, and the change in light transmittance was recorded for 6 minutes. The maximum extent of aggregation as well as the final (6 min after initiation of the aggregation reaction) extent of aggregation was determined from each reaction.
(§3) The compound of Formula I was the potassium salt (Polymorph B) dissolved in water.
The nature of data set [10]: Tolerability and safety of single intravenous doses in human subjects. The format is in vivo. The text has this: To determine the tolerability, the pharmacokinetic (PK) and pharmacodynamic (PD) effects of single ascending IV doses of a compound of Formula I (the potassium salt of polymorph B, or PRT128) in healthy subjects, ages 18-50.
The subject of data set [11] is ADP-induced platelet aggregation. In words: animal or person. As to conditions: Homo sapiens, iv, 0.1 h, read-out: IC50 for inhibition of ADP-induced late (6 min) platelet aggregation vs plasma concentration (Emax model).
Description: as §1
The subject of data set [12] is collagen-induced platelet thrombosis. In words: Real Time Thrombosis Profiler (RTTP) ex vivo after oral dosing. It counts as in vivo, human. As to conditions: 6 hours post dosing. As for the experimental part:
Rhodamine 6G (1.25 μg/ml final concentration) was added to the blood, mixed by gentle inversion, and the tube was incubated at ˜37° C. for 20 min. Subsequently, the rhodamine-labeled blood was perfused through a rectangular glass capillary coated with type III collagen at an arterial shear rate (˜1600 sec^−1) and the extent of thrombus formation on the collagen surface was monitored for 5-7 min by the accumulation of fluorescently-labeled platelets using a video camera. The extent of the overall thrombotic process (e.g., accumulation of fluorescently-labeled platelets over time) was determined by analysis of various parameters derived from the curve generated from mean fluorescence intensity vs time (sec). These parameters may include slope, area under the curve, and endpoint.
In yet another part of the study, the effects of the oral treatments in the human subjects was investigated using a Real Time Thrombosis Profiler (RTTP) as the ex vivo assay method. The set up and principles of operation of the RTTP are depicted in FIGS. 26A, B, and C. There was a dose-dependent decrease in the RTTP collagen-induced platelet thrombosis for the subjects given the compound. A dose of 100 mg of the compound produced about a 70% inhibition. A dose of 30 mg of the compound produced a 53 percent inhibition.

Data set [13] can be described thus: Bleeding time (Surgicutt device) after IV infusion. The format is in vivo, human. As for the experimental part: Bleeding time was measured using the Surgicutt device at 25 min (Cmax) and 8 hrs post dose. […] However, this effect was reversed by 8 hrs post dosing.
For data set [14], the system named is ADP induced platelet aggregation. Briefly: animal or person. Conditions: Homo sapiens, po, 0.1 h, read-out: IC50 of inhibition of ADP-induced platelet aggregation vs plasma concentration (PK-PD), oral study, aggregation at 6 minutes, ex vivo.
Description: as §2, §3
In data set [15] the test system is collagen induced platelet aggregation. Briefly: Ex vivo collagen-induced platelet aggregation after oral dosing, with or without aspirin. Conditions: aspirin alone, predosed for three days at 325 mg/day. The format is in vivo, human. The source says:
In a further aspect of the study, the effect of aspirin and the compound together on the inhibition of collagen-induced platelet aggregation was investigated.

For `CNc1cc2[nH]c(=O)n(-c3ccc(NC(=O)NS(=O)(=O)c4ccc(Cl)s4)cc3)c(=O)c2cc1F` [Example 2], the IC50 in data set [1] was less than 10 µM; in data set [2], less than 50 nM.
Regarding `CNc1cc2[nH]c(=O)n(-c3ccc(NC(=O)[N-]S(=O)(=O)c4ccc(Cl)s4)cc3)c(=O)c2cc1F.[K+]` [Form A], the “change in chemical purity in accelerated stability test” value in data set [3] is “No change”. In addition, in data set [4], the “stability of solid form” value is “stable”.
Consider `CNc1cc2[nH]c(=O)n(-c3ccc(NC(=O)[N-]S(=O)(=O)c4ccc(Cl)s4)cc3)c(=O)c2cc1F.[K+]` [PRT128], for which the serious adverse events result was “no serious adverse events” in data set [5] and “No serious adverse events” in data set [10] (IV 1-40 mg). Also, the tolerability result in data set [5] is reported as “well tolerated”; in data set [10] (IV 1-40 mg over 20 minutes, human) it was “well tolerated”; in data set [10] (IV bolus up to 45 mg), “equally well tolerated”. Further, in data set [6], the “drug exposure with dose” value was “dose proportional”. In addition, the “plasma PK increases with dose” value in data set [7] (oral, 10-100 mg) is recorded as “dose proportional”. The half-life in [7] (plasma, single oral liquid dose, read-out: terminal half-life (converted)) is approximately 720 min. The “maximum inhibition of ADP-induced platelet aggregation measured at six minutes” value turned out to be 100% in data set [8] and 100% in [9] (oral, at the higher dosages). In addition, in data set [9] (oral 100 mg, four hours post dose), the “inhibition of ADP-induced platelet aggregation” value stood at 60%. Also, the “IC50 of inhibition of ADP-induced platelet aggregation vs plasma concentration (PK-PD)” value in data set [9] (oral study, aggregation at 6 minutes, ex vivo, listed as potassium salt, potassium salt) is listed as “≈ 450 ng/ml”. Moreover, the “dose achieving maximum effect (maximum amplitude aggregation)” value in [9] (oral, four hour time point) is given as “about 200 mg”. In data set [10] (IV 1-40 mg), the ECG result is given as “No significant changes”. The “standard clinical chemistry, hematology and coagulation labs” value in data set [10] (IV 1-40 mg) is recorded as “no clinically significant changes or trends”. For the same compound, in [10] (IV 1-40 mg), the vital signs result is listed as “No significant changes or trends”. Moreover, the IC50 in [11] is 0.601 µg/mL; in data set [14], approximately 0.451 µg/mL. Moreover, the “inhibition of RTTP collagen-induced platelet thrombosis” value in [12] (oral 30 mg) is listed as 53%; in data set [12] (oral 100 mg), approximately 70%. Further, the “dose at which pre-defined bleeding time stopping criteria (>20 min and 3 fold prolongation from baseline) were reached” value in [13] amounted to 40 mg. The bleeding time entry in [13] (25 min (Cmax)) is “prolonged dose-dependently”. The “bleeding time effect at 8 hrs” value in data set [13] (8 hrs post dose, potassium salt) is given as “reversed; also recorded: returned to baseline”. For the same compound, the “bleeding time at potential clinically therapeutic anti-thrombotic level of 40%” value in data set [13] (listed as studied compound, potassium salt) was “without substantially affecting bleeding time”; in data set [13] (potassium salt), “did not increase bleeding time”.
Turning to `CNc1cc2[nH]c(=O)n(-c3ccc(NC(=O)[N-]S(=O)(=O)c4ccc(Cl)s4)cc3)c(=O)c2cc1F.[Na+]` [amorphous form of the sodium salt], the “change in chemical purity in accelerated stability test” value in [3] is recorded as “No change”.
As to ortho-acetylsalicylic acid [aspirin], the “reduction in collagen induced platelet aggregation assay” value in data set [15] was approximately 40%.
